Experimental findings from patent US12668586B2, “AhR inhibitor, use thereof, and preparation method therefor” (CHONGQING PHARSCIN INNOBIO CO., LTD., priority 2021, dated 2026) are described below.

pIC50: −log10 of the molar value.

In this experiment the target is T1, AhR (Homo sapiens, UniProt P35869).
T1 sequence (P35869 11-848): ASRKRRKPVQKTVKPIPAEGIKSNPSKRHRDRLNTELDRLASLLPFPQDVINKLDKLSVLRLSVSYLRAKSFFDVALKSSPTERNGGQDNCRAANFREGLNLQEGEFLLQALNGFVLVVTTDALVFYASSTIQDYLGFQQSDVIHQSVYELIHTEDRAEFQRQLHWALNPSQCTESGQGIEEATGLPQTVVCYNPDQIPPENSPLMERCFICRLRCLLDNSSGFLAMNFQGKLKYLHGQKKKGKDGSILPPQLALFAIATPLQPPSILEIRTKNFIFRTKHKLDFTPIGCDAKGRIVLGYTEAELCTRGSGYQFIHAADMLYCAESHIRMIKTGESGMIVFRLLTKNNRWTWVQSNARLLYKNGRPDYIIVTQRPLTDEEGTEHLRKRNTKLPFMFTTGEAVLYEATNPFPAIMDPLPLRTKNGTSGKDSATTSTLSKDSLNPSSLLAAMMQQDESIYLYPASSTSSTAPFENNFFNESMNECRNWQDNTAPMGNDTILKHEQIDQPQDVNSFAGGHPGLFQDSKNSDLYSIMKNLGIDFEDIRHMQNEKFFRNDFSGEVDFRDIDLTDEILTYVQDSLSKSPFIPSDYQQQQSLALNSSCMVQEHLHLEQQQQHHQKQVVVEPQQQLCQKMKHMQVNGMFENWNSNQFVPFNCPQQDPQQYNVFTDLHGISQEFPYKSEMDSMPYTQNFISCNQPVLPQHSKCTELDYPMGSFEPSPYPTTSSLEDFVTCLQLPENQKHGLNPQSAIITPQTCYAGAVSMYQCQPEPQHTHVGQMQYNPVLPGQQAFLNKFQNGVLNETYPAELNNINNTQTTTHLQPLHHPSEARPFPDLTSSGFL
The experiment is described as follows: AhR inhibitory activity experiment, in vitro assay 1: HepG2-Lucia AhR cells, Lucia luciferase reporter (QUANTI-Luc). The class given is cell-based. The settings on record: 24 hours incubation at 37° C., Lucia luciferase in supernatant, read-out: AhR inhibitory activity C50. How it is done: Test Example: AhR Inhibitory Activity Experiment
When QUANTI-Luc™ (InvivoGen Company) testing reagents are used, AhR gene signaling pathways can be studied by monitoring the activity of Lucia luciferase in the cell culture supernatant.
In Vitro Assay 1: Assay on Inhibitory Activity in Human Cell Lines
Adherent cell layers of HepG2-Lucia™ AhR cells in a logarithmic growth phase were washed with PBS, and then the cells were isolated with trypsin. The isolated cells were centrifuged at 1000 RPM for 5 minutes, the supernatant was removed, and the cells were re-suspended with a test medium by 1.25×10^5 cells/ml.
20,000 cells were added to each well of a 96-well plate, and the 96-well plate was placed in a CO2 incubator to incubate the cells at 37° C. for 24 hours in the absence (negative control) or presence of test compounds with gradient increasing concentrations (typical dilutions: 169 pmol/L, 0.5 nmol/L, 1.5 nmol/L; 4.6 nmol/L, 13.7 nmol/L, 41 nmol/L, 123 nmol/L, 370 nmol/L, 1.1 μmol/L, 3.3 μmol/L and 10 μmol/L, in triplicate).
The 20 μl/well cell supernatant was transferred to a black 96-well plate, a 50 μL/well QUANTI-Luc™ solution was added, and the activity of Lucia luciferase was measured on a multifunctional ELISA reader Spark 10 M (Tecan Company) through a QUANTI-Luc™ luciferase assay system.
Experimental results are shown in Table 1, wherein for IC50 values, “++++” represents IC50<0.05 μM; “+++” represents IC50 between 0.05 μM and 0.2 μM; “++” represents IC50 between 0.2 μM and 1.0 μM; and “+” represents IC50>1.0 μM.
`COc1ccc([C@H](C)NC(=O)c2cc(-c3ccc(Cl)cc3)nc(-c3cnn(C)c3)n2)cc1F` [Compound 8, (S)-6-(4-chlorophenyl)-N-(1-(3-fluoro-4-methoxyphenyl)ethyl)-2-(1-methyl-1H-pyrazol-4-yl)pyrimidine-4-formamide]: the pIC50 was > 7.30.
As for `C[C@H](NC(=O)c1cc(-c2ccc(C#N)cc2)nc(-c2cnn(C)c2)n1)c1ccnc(F)c1` [Compound 58, (S)-6-(4-cyanophenyl)-N-(1-(2-fluoro-4-pyridine)ethyl)-2-(1-methyl-1H-pyrazol-4-yl)pyrimidine-4-formamide], the pIC50 is 6.70 to 7.30.
For `Cn1cc(-c2nc(C(=O)N[C@H](c3ccc(F)cc3)C3CC3)cc(-c3ccc(Cl)cc3)n2)cn1` [Compound 19, (S)-6-(4-chlorophenyl)-N-(1-cyclopropyl(4-fluorophenyl))-2-(1-methyl-1H-pyrazol-4-yl)pyrimidine-4-formamide], the pIC50 is > 7.30.
For `Cn1cc(-c2nc(C(=O)N[C@H]3CCc4ncccc43)cc(-c3ccc(C(F)(F)F)cc3)n2)cn1` [Compound 56, (S)-6-(4-trifluoromethylphenyl)-N-((S)-6,7-dihydro-5H-cyclopentano[B]pyridin-5-yl)-2-(1-methyl-1H-pyrazol-4-yl)pyrimidine-4-formamide], the pIC50 was > 7.30.
On to `C[C@H](NC(=O)c1cc(-c2ccc(Cl)cc2)nc(-c2cnn(C)c2)n1)c1ccccc1C(F)(F)F` [Compound 24, (S)-6-(4-chlorophenyl)-N-(1-(o-trifluoromethylphenyl)ethyl)-2-(1-methyl-1H-pyrazol-4-yl)pyrimidine-4-formamide], for which the pIC50 was 6.00 to 6.70.
Consider `C[C@H](NC(=O)c1cc(-c2ccc(Cl)cc2)nc(-c2cnn(C)c2)n1)c1ccnc(F)c1` [Compound 15, (S)-6-(4-chlorophenyl)-N-(1-(2-fluoro-4-pyridine)ethyl)-2-(1-methyl-1H-pyrazol-4-yl)pyrimidine-4-formamide], for which the pIC50 is > 7.30.
On to `Cn1cc(-c2nc(C(=O)NC3(C)CCN(CC(N)=O)CC3)cc(-c3ccc(Cl)cc3)n2)cn1` [Compound 45, 6-(4-chlorophenyl)-N-(2-(4-yl-4-methylpiperidin-1-yl)acetamide)-2-(1-methyl-1H-pyrazol-4-yl)pyrimidine-4-formamide], for which the pIC50 is > 7.30.
With `C[C@H](NC(=O)c1cc(-c2ccc(Cl)cc2)nc(-c2cnc(Cl)nc2)n1)c1ccnc(F)c1` [Compound 36, (S)-6-(4-chlorophenyl)-N-(1-(2-fluoro-4-pyridine)ethyl)-2-(2-chloropyrimidin-5-yl)pyrimidine-4-formamide], the pIC50 is < 6.00.
On to `C[C@H](NC(=O)c1cc(-c2ccc(Cl)cc2)nc(-c2cnn(C)c2)n1)c1cccc(F)c1` [Compound 26, (S)-6-(4-chlorophenyl)-N-(1-(3-fluorophenyl)ethyl)-2-(1-methyl-1H-pyrazol-4-yl)pyrimidine-4-formamide], for which the pIC50 is > 7.30.
To `C[C@H](NC(=O)c1cc(-c2ccc(Cl)cc2)nc(-c2cnn(C)c2)n1)c1ccc(O)c(F)c1` [Compound 11, (S)-6-(4-chlorophenyl)-N-(1-(3-fluoro-4-hydroxyphenyl)ethyl)-2-(1-methyl-1H-pyrazol-4-yl)pyrimidine-4-formamide] belongs < 6.00.
For `Cn1cc(-c2nc(C(=O)NC3(c4ccc(Cl)cc4)CC3)cc(-c3ccc(Cl)cc3)n2)cn1` [Compound 51, (S)-6-(4-chlorophenyl)-N-(1-(4-chlorophenyl)cyclopropylamine)-2-(1-methyl-1H-pyrazol-4-yl)pyrimidine-4-formamide], the pIC50 was > 7.30.
To `C[C@H](NC(=O)c1cc(-c2ccc(Cl)cc2)nc(-c2cnn(C)c2)n1)c1ccn2ncnc2c1` [Compound 17] belongs > 7.30; to `C[C@H](NC(=O)c1cc(-c2ccc(Cl)cc2)nc(-c2cnn(C)c2)n1)c1ccncc1` [Compound 4, (S)-6-(4-chlorophenyl)-N-(1-(4-pyridine)ethyl)-2-(1-methyl-1H-pyrazol-4-yl)pyrimidine-4-formamide], > 7.30; to `C[C@H](NC(=O)c1cc(-c2ccc(Cl)cc2)nc(-c2cnn(C)c2)n1)c1ccnc(C#N)c1` [Compound 12, (S)-6-(4-chlorophenyl)-N-(1-(2-cyano-4-pyridine)ethyl)-2-(1-methyl-1H-pyrazol-4-yl)pyrimidine-4-formamide], > 7.30.
With `Cn1cc(-c2nc(C(=O)NCC3(c4ccc(Cl)cc4)CC3)cc(-c3ccc(Cl)cc3)n2)cn1` [Compound 22, (S)-6-(4-chlorophenyl)-N-(1-[1-(4-chlorophenyl)cyclopropyl]methyl)-2-(1-methyl-1H-pyrazol-4-yl)pyrimidine-4-formamide], the pIC50 is < 6.00.
Turning to `Cn1cc(-c2nc(C(=O)N[C@H]3CCc4cc(F)c(F)cc43)cc(-c3ccc(Cl)cc3)n2)cn1` [Compound 20, (S)-6-(4-chlorophenyl)-N-((S)-(5,6-difluoro-2,3-dihydro)-(−)-1-yl-2-indene)-2-(1-methyl-1H-pyrazol-4-yl)pyrimidine-4-formamide], the pIC50 was 6.70 to 7.30.
As for `Cn1cc(-c2nc(C(=O)N[C@H]3CC(C)(C)c4ccccc43)cc(-c3ccc(Cl)cc3)n2)cn1` [Compound 25, (S)-6-(4-chlorophenyl)-N-((S)-(3,3-dimethyl-2,3-dihydro)-(−)-1-yl-2-indene)-2-(1-methyl-1H-pyrazol-4-yl)pyrimidine-4-formamide], the figure is < 6.00; as for `Cn1cc(-c2nc(C(=O)NCCc3c[nH]c4ccccc34)cc(-c3ccc(Cl)cc3)n2)cn1` [Compound 6, (S)-6-(4-chlorophenyl)-N-(2-(1H-indol-3-yl)ethyl)-2-(1-methyl-1H-pyrazol-4-yl)pyrimidine-4-formamide], < 6.00; as for `Cn1cc(-c2nc(C(=O)N[C@H]3CCc4cc(C#N)ccc43)cc(-c3ccc(Cl)cc3)n2)cn1` [Compound 28, (S)-6-(4-chlorophenyl)-N-(5-cyano-(2,3-dihydro)-(−)-1-yl-2-indene)-2-(1-methyl-1H-pyrazol-4-yl)pyrimidine-4-formamide], > 7.30.
With `Cn1cc(-c2nc(C(=O)NC3(C)CCN(CC(F)(F)F)CC3)cc(-c3ccc(Cl)cc3)n2)cn1` [Compound 44, 6-(4-chlorophenyl)-N-((4-yl-4-methylpiperidin-1-yl)trifluoroethyl)-2-(1-methyl-1H-pyrazol-4-yl)pyrimidine-4-formamide], the pIC50 is > 7.30.
In the case of `C[C@H](NC(=O)c1cc(-c2ccc(Cl)cc2)nc(-c2ccnc(N)c2)n1)c1ccnc(F)c1` [Compound 37, (S)-6-(4-chlorophenyl)-N-(1-(2-fluoro-4-pyridine)ethyl)-2-(2-aminopyridin-4-yl)pyrimidine-4-formamide], the pIC50 is > 7.30.
On to `C[C@H](NC(=O)c1cc(-c2ccc(Cl)cc2)nc(-c2cnn(C)c2)n1)c1ccc(F)c(Cl)c1` [Compound 31, (S)-6-(4-chlorophenyl)-N-(1-(3-chloro-4-fluorophenyl)ethyl)-2-(1-methyl-1H-pyrazol-4-yl)pyrimidine-4-formamide], for which the pIC50 is > 7.30.
Take `C[C@H](NC(=O)c1cc(-c2ccc(Cl)cc2)nc(-c2cccnc2)n1)c1ccnc(F)c1` [Compound 35, (S)-6-(4-chlorophenyl)-N-(1-(2-fluoro-4-pyridine)ethyl)-2-(3-pyridin-4-yl)pyrimidine-4-formamide]: the pIC50 is > 7.30.
As for `Cn1cc(-c2nc(C(=O)Nc3n[nH]c4ccccc34)cc(-c3ccc(Cl)cc3)n2)cn1` [Compound 41, 6-(4-chlorophenyl)-N-(1H-indazol-3-yl)-2-(1-methyl-1H-pyrazol-4-yl)pyrimidine-4-formamide], the figure is < 6.00; as for `C[C@H](NC(=O)c1cc(-c2ccc(Cl)cc2)nc(-c2cnn(C)c2)n1)c1ccnc(Cl)c1` [Compound 9, (S)-6-(4-chlorophenyl)-N-(1-(2-chloro-4-pyridine)ethyl)-2-(1-methyl-1H-pyrazol-4-yl)pyrimidine-4-formamide], > 7.30.
